Test results: PubChem BioAssay (NCI)
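Five compound concentrations were applied to cells in 96-well plates for 48 hours; endpoints were derived by simple linear interpolation of the resulting dose-response curve. GI50 is the concentration that inhibits growth by half. The concentration for full growth arrest is given as TGI.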

Columns and labels:
Assay in all cases: NCI tumour cell line growth inhibition, 48 h
NCI-H226 lung = tested on: NCI-H226 lung
NCI-H522 lung = tested on: NCI-H522 lung
ACHN renal = tested on: ACHN renal
HCT-15 colon = tested on: HCT-15 colon
SF-268 CNS = tested on: SF-268 CNS
T-47D breast = tested on: T-47D breast
SK-MEL-2 melanoma = tested on: SK-MEL-2 melanoma
LOX IMVI melanoma = tested on: LOX IMVI melanoma
UACC-257 melanoma = tested on: UACC-257 melanoma
OVCAR-5 ovarian = tested on: OVCAR-5 ovarian
CCRF-CEM leukemia = tested on: CCRF-CEM leukemia
SK-MEL-28 melanoma = tested on: SK-MEL-28 melanoma
CAKI-1 renal = tested on: CAKI-1 renal
UO-31 renal = tested on: UO-31 renal
SK-OV-3 ovarian = tested on: SK-OV-3 ovarian
COLO 205 colon = tested on: COLO 205 colon
OVCAR-4 ovarian = tested on: OVCAR-4 ovarian
NCI-H460 lung = tested on: NCI-H460 lung
U251 CNS = tested on: U251 CNS
UACC-62 melanoma = tested on: UACC-62 melanoma
SNB-19 CNS = tested on: SNB-19 CNS
SF-295 CNS = tested on: SF-295 CNS
NCI/ADR-RES ovarian = tested on: NCI/ADR-RES ovarian
RPMI-8226 leukemia = tested on: RPMI-8226 leukemia
SF-539 CNS = tested on: SF-539 CNS
HOP-92 NSCLC = tested on: HOP-92 NSCLC
RXF 393 renal = tested on: RXF 393 renal
EKVX NSCLC = tested on: EKVX NSCLC
MOLT-4 leukemia = tested on: MOLT-4 leukemia
HCT-116 colon = tested on: HCT-116 colon
SW-620 colon = tested on: SW-620 colon
MDA-MB-435 = tested on: MDA-MB-435
PC-3 prostate = tested on: PC-3 prostate
786-0 renal = tested on: 786-0 renal
MALME-3M melanoma = tested on: MALME-3M melanoma
OVCAR-3 ovarian = tested on: OVCAR-3 ovarian
KM12 colon = tested on: KM12 colon
NCI-H23 lung = tested on: NCI-H23 lung
M14 melanoma = tested on: M14 melanoma
HS 578T breast = tested on: HS 578T breast
A549 NSCLC = tested on: A549 NSCLC
HCC-2998 colon = tested on: HCC-2998 colon
TK-10 renal = tested on: TK-10 renal
SN12C renal = tested on: SN12C renal
MCF7 breast = tested on: MCF7 breast
OVCAR-8 ovarian = tested on: OVCAR-8 ovarian
K-562 leukemia = tested on: K-562 leukemia
IGROV1 ovarian = tested on: IGROV1 ovarian
HOP-62 NSCLC = tested on: HOP-62 NSCLC
HT29 colon = tested on: HT29 colon
MDA-MB-231 breast = tested on: MDA-MB-231 breast
SK-MEL-5 melanoma = tested on: SK-MEL-5 melanoma
A498 renal = tested on: A498 renal
BT-549 breast = tested on: BT-549 breast
DU-145 prostate = tested on: DU-145 prostate

Q: Which results are given for `C=C(C)[C@@H]1CCC[C@]2(C(=O)O)CC[C@]3(C)[C@@H](CC[C@@H]4[C@@]5(C)C/C(=C/c6ccncc6)C(=O)C(C)(C)[C@@H]5CC[C@]43C)[C@@H]12`?
A: GI50 (NCI-H226 lung): 4.66 µM; TGI (NCI-H226 lung): 53.4 µM; GI50 (NCI-H522 lung): 2.74 µM; TGI (NCI-H522 lung): 9.14 µM; GI50 (ACHN renal): 2.84 µM; TGI (ACHN renal): 11 µM; GI50 (HCT-15 colon): 1.85 µM; TGI (HCT-15 colon): 4.31 µM; GI50 (SF-268 CNS): 3.81 µM; TGI (SF-268 CNS): 91 µM; GI50 (T-47D breast): 3.98 µM; TGI (T-47D breast): > 100 µM; GI50 (SK-MEL-2 melanoma): 2.59 µM; TGI (SK-MEL-2 melanoma): 6.72 µM; GI50 (LOX IMVI melanoma): 1.84 µM; TGI (LOX IMVI melanoma): 3.5 µM; GI50 (UACC-257 melanoma): 3 µM; TGI (UACC-257 melanoma): 13.8 µM; GI50 (OVCAR-5 ovarian): 2.52 µM; TGI (OVCAR-5 ovarian): 11.9 µM; GI50 (CCRF-CEM leukemia): 3.16 µM; TGI (CCRF-CEM leukemia): > 100 µM; GI50 (SK-MEL-28 melanoma): 2.1 µM; TGI (SK-MEL-28 melanoma): 4.58 µM; GI50 (CAKI-1 renal): 3.34 µM; TGI (CAKI-1 renal): 13.9 µM; GI50 (UO-31 renal): 1.74 µM; TGI (UO-31 renal): 4.65 µM; GI50 (SK-OV-3 ovarian): 4.91 µM; TGI (SK-OV-3 ovarian): 34.3 µM; GI50 (COLO 205 colon): 1.64 µM; TGI (COLO 205 colon): 3.25 µM; GI50 (OVCAR-4 ovarian): 4.31 µM; TGI (OVCAR-4 ovarian): 67.4 µM; GI50 (NCI-H460 lung): 1.87 µM; TGI (NCI-H460 lung): 4.45 µM; GI50 (U251 CNS): 2.14 µM; TGI (U251 CNS): 7.38 µM; GI50 (UACC-62 melanoma): 2.05 µM; TGI (UACC-62 melanoma): 5.68 µM; GI50 (SNB-19 CNS): 3.69 µM; TGI (SNB-19 CNS): 17.1 µM; GI50 (SF-295 CNS): 2.04 µM; TGI (SF-295 CNS): 6.63 µM; GI50 (NCI/ADR-RES ovarian): 3.99 µM; TGI (NCI/ADR-RES ovarian): > 100 µM; GI50 (RPMI-8226 leukemia): 1.8 µM; TGI (RPMI-8226 leukemia): 7.5 µM; GI50 (SF-539 CNS): 2.7 µM; TGI (SF-539 CNS): 11.9 µM; GI50 (HOP-92 NSCLC): 1.71 µM; TGI (HOP-92 NSCLC): 7.19 µM; GI50 (RXF 393 renal): 2.09 µM; TGI (RXF 393 renal): 4.47 µM; GI50 (EKVX NSCLC): 3.2 µM; TGI (EKVX NSCLC): 46.3 µM; GI50 (MOLT-4 leukemia): 2.07 µM; TGI (MOLT-4 leukemia): > 100 µM; GI50 (HCT-116 colon): 1.36 µM; TGI (HCT-116 colon): 2.8 µM; GI50 (SW-620 colon): 3.14 µM; TGI (SW-620 colon): 9.6 µM; GI50 (MDA-MB-435): 2.6 µM; TGI (MDA-MB-435): 6.88 µM; GI50 (PC-3 prostate): 2.39 µM; TGI (PC-3 prostate): 20.3 µM; GI50 (786-0 renal): 2.24 µM; TGI (786-0 renal): 6.23 µM; GI50 (MALME-3M melanoma): 3.46 µM; TGI (MALME-3M melanoma): 23.2 µM; GI50 (OVCAR-3 ovarian): 1.89 µM; TGI (OVCAR-3 ovarian): 3.85 µM; GI50 (KM12 colon): 1.8 µM; TGI (KM12 colon): 3.87 µM; GI50 (NCI-H23 lung): 3.33 µM; TGI (NCI-H23 lung): 12.9 µM; GI50 (M14 melanoma): 2.24 µM; TGI (M14 melanoma): 5.85 µM; GI50 (HS 578T breast): 19.4 µM; TGI (HS 578T breast): > 100 µM; GI50 (A549 NSCLC): 1.72 µM; TGI (A549 NSCLC): 5.26 µM; GI50 (HCC-2998 colon): 1.94 µM; TGI (HCC-2998 colon): 4.29 µM; GI50 (TK-10 renal): 3.6 µM; TGI (TK-10 renal): 29.4 µM; GI50 (SN12C renal): 3.71 µM; TGI (SN12C renal): > 100 µM; GI50 (MCF7 breast): 2.77 µM; TGI (MCF7 breast): 28.5 µM; GI50 (OVCAR-8 ovarian): 3.07 µM; TGI (OVCAR-8 ovarian): > 100 µM; GI50 (K-562 leukemia): 3.3 µM; TGI (K-562 leukemia): > 100 µM; GI50 (IGROV1 ovarian): 3.02 µM; TGI (IGROV1 ovarian): 9.31 µM; GI50 (HOP-62 NSCLC): 2.78 µM; TGI (HOP-62 NSCLC): 8.28 µM; GI50 (HT29 colon): 2.69 µM; TGI (HT29 colon): 9.5 µM; GI50 (MDA-MB-231 breast): 3.05 µM; TGI (MDA-MB-231 breast): 24.3 µM; GI50 (SK-MEL-5 melanoma): 1.96 µM; TGI (SK-MEL-5 melanoma): 4.51 µM; GI50 (A498 renal): 1.62 µM; TGI (A498 renal): 5.01 µM; GI50 (BT-549 breast): 2.1 µM; TGI (BT-549 breast): 6.21 µM; GI50 (DU-145 prostate): 4.03 µM; TGI (DU-145 prostate): 45.1 µM
